Test systems include M14 melanoma; NCI-H23 lung; SR leukemia; UACC-257 melanoma; COLO 205 colon; NCI-H226 lung; CAKI-1 renal; BT-549 breast; HCT-15 colon; OVCAR-8 ovarian.
What all share (experiment): inhibition of tumour cell growth, NCI panel, 48 h

Each structure is given as a SMILES string.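 Method: 48-hour compound exposure of cells in 96-well plates, five concentrations, linear interpolation of endpoints. At the GI50, growth is halved. TGI is the concentration that stops growth completely.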

For the molecule `COC1C=COC2(C)Oc3c(C)c(O)c4c(c3C2=O)/C(=N/C2CCC(O)OC2C)C=C(NC(=O)/C(C)=C\C(=O)C2CC2C(O)C(C)C(O)C(C)C(OC(C)=O)C1C)C4=O` (centres undefined), the TGI with M14 melanoma turned out to be 4.47 µM; with NCI-H23 lung it was 3.62 µM; with SR leukemia it was 5.06 µM; in the assay on UACC-257 melanoma, 5.98 µM; with COLO 205 colon it was 3.38 µM; with NCI-H226 lung, 8.06 µM. The TGI in the assay with CAKI-1 renal came out at 9.92 µM; in the assay on BT-549 breast, 6.28 µM; with HCT-15 colon, 9.79 µM; in the assay on OVCAR-8 ovarian it was 3.89 µM.
On to `O=C(OCc1ccc2ccccc2n1)c1cn(C2CC2)c2cc(N3CCN(Cc4ccc5ccccc5n4)CC3)c(F)cc2c1=O`, for which the GI50 with M14 melanoma is over 56.3 µM; in the assay on NCI-H23 lung, 42.3 µM; in the assay with SR leukemia it was over 100 µM; in the assay with UACC-257 melanoma, over 94.2 µM; in the assay with COLO 205 colon, 49.6 µM; with NCI-H226 lung, 22.1 µM. For the same molecule, the GI50 in the assay with CAKI-1 renal is 55.7 µM; with BT-549 breast, 23.1 µM; with HCT-15 colon, 62.6 µM; in the assay on OVCAR-8 ovarian it was 51.5 µM. The TGI in the assay on M14 melanoma is 99.8 µM; in the assay with NCI-H23 lung it was over 88.6 µM; in the assay on SR leukemia, over 100 µM; in the assay on UACC-257 melanoma, over 100 µM; in the assay on COLO 205 colon, over 100 µM; with NCI-H226 lung, 91.6 µM. The TGI in the assay on CAKI-1 renal was over 100 µM; in the assay on BT-549 breast, 68 µM; in the assay on HCT-15 colon, over 100 µM; with OVCAR-8 ovarian, over 100 µM.
On to `CN1CCN(C(=O)c2cc(-c3ccc4ncnc(N5CCc6cc(F)c(Cl)cc65)c4c3)cnc2N)CC1`, for which the GI50 in the assay on M14 melanoma was 0.338 µM; in the assay on NCI-H23 lung, 0.31 µM; in the assay on SR leukemia, 0.137 µM; in the assay with UACC-257 melanoma, 0.334 µM; in the assay with COLO 205 colon it was 0.446 µM; in the assay on NCI-H226 lung, 0.309 µM. Also, the GI50 in the assay with CAKI-1 renal was 0.165 µM; with BT-549 breast, 0.181 µM; in the assay with HCT-15 colon, 0.251 µM; with OVCAR-8 ovarian, 0.29 µM. Besides, the TGI is 4.75 µM in the assay with M14 melanoma; 5.66 µM in the assay on NCI-H23 lung; 3.52 µM in the assay on UACC-257 melanoma; 3.5 µM in the assay with COLO 205 colon; 2.76 µM in the assay with NCI-H226 lung; 1.21 µM in the assay on CAKI-1 renal. Also, the TGI in the assay on BT-549 breast came out at 1.57 µM; in the assay with HCT-15 colon, 2.63 µM; in the assay with OVCAR-8 ovarian it was 24.1 µM.
Take `O=C(O)c1ccc(C(=O)c2ccccc2)c(C(=O)O)c1`: the TGI in the assay with M14 melanoma, in the assay on NCI-H23 lung, in the assay on SR leukemia, in the assay on UACC-257 melanoma, with COLO 205 colon and with NCI-H226 lung was over 100 µM throughout. In addition, the TGI in the assay on CAKI-1 renal, in the assay with BT-549 breast, in the assay with HCT-15 colon and with OVCAR-8 ovarian was over 100 µM in each case.
As for `CCOc1ccccc1C(=O)N1CCN(c2cc(Cl)cc(Cl)c2)CC1`, the GI50 with M14 melanoma was 0.0293 µM; in the assay with NCI-H23 lung it was 0.0491 µM; in the assay on SR leukemia, 0.0335 µM; in the assay on UACC-257 melanoma it was 4.19 µM; in the assay on COLO 205 colon it was 0.0287 µM; in the assay on NCI-H226 lung it was 0.839 µM. Also, the GI50 was 0.0257 µM with CAKI-1 renal, 0.0429 µM in the assay on BT-549 breast, 0.0322 µM in the assay with HCT-15 colon and 0.0371 µM in the assay with OVCAR-8 ovarian. The TGI in the assay on M14 melanoma worked out at 1.72 µM; with NCI-H23 lung, 9.46 µM; in the assay on SR leukemia, 22 µM; in the assay on UACC-257 melanoma, 25.8 µM; with COLO 205 colon, 0.0853 µM; in the assay with NCI-H226 lung it was 6.55 µM. Besides, the TGI with CAKI-1 renal was 12.5 µM; in the assay on BT-549 breast, 4.34 µM; in the assay with HCT-15 colon, 10.9 µM; with OVCAR-8 ovarian, 14.2 µM.
For `COc1ccc2cc1Oc1ccc(cc1)C[C@H]1c3c(cc4c(c3Oc3cc5c(cc3OC)CCN(C)[C@@H]5C2)OCO4)CCN1C`, the GI50 was 0.903 µM with M14 melanoma; 5.44 µM with NCI-H23 lung; 0.908 µM in the assay with SR leukemia; 0.727 µM in the assay with UACC-257 melanoma; 0.356 µM in the assay on COLO 205 colon; 4.1 µM in the assay on NCI-H226 lung. Besides, the GI50 with CAKI-1 renal is 5.13 µM; with BT-549 breast, 5.12 µM; in the assay with HCT-15 colon, 2.02 µM; in the assay on OVCAR-8 ovarian it was 2.36 µM. The TGI in the assay with M14 melanoma stood at 1.76 µM; in the assay with NCI-H23 lung, 13.5 µM; in the assay on SR leukemia it was 2.87 µM; with UACC-257 melanoma, 1.46 µM; with COLO 205 colon, 1.36 µM; in the assay with NCI-H226 lung, 11.5 µM. Besides, the TGI came out at 11.9 µM with CAKI-1 renal, 11.8 µM in the assay on BT-549 breast, 8.34 µM with HCT-15 colon and 9.9 µM in the assay on OVCAR-8 ovarian.
Turning to `C[C@@H]1CN(Cc2ccc(F)cc2)[C@@H](C)CN1C(=O)c1cc2c(C(=O)C(=O)N(C)C)cn(C)c2cc1Cl`, the GI50 with M14 melanoma was 13.4 µM; in the assay with NCI-H23 lung it was 19.6 µM; in the assay on SR leukemia, 13.4 µM; in the assay on UACC-257 melanoma, 15.7 µM; in the assay with COLO 205 colon it was 7.66 µM; in the assay on NCI-H226 lung, 12.2 µM. Besides, the GI50 in the assay on CAKI-1 renal was 16.1 µM; with BT-549 breast it was 15.2 µM; in the assay with HCT-15 colon it was 18.3 µM; in the assay with OVCAR-8 ovarian, 17.6 µM. In addition, the TGI amounted to 36.6 µM in the assay on M14 melanoma; 57.2 µM with NCI-H23 lung; 39.2 µM in the assay with SR leukemia; 34.7 µM with UACC-257 melanoma; 25.4 µM in the assay with COLO 205 colon; 31.1 µM in the assay with NCI-H226 lung. Moreover, the TGI with CAKI-1 renal turned out to be 67.4 µM; with BT-549 breast, 41.8 µM; with HCT-15 colon it was 47.3 µM; with OVCAR-8 ovarian, 48.8 µM.
Regarding `COc1cc(N2C(=O)[C@H](O)C2c2ccc(SC)cc2)cc(OC)c1OC` (some centres undefined), the GI50 was under 0.01 µM in the assay with M14 melanoma; 0.0191 µM with NCI-H23 lung; under 0.01 µM in the assay with SR leukemia; 14.6 µM in the assay with UACC-257 melanoma; 0.0101 µM in the assay on COLO 205 colon; under 0.01 µM with NCI-H226 lung. Moreover, the GI50 in the assay with CAKI-1 renal was under 0.01 µM; in the assay with BT-549 breast, under 0.01 µM; in the assay with HCT-15 colon it was 0.0115 µM; in the assay on OVCAR-8 ovarian, under 0.01 µM. The TGI with M14 melanoma was 0.0198 µM; in the assay on NCI-H23 lung, over 100 µM; with SR leukemia, over 100 µM; in the assay on UACC-257 melanoma, over 100 µM; in the assay on COLO 205 colon, 0.0357 µM; in the assay on NCI-H226 lung it was over 100 µM. The TGI in the assay on CAKI-1 renal is over 100 µM; in the assay with BT-549 breast, 0.0835 µM; in the assay with HCT-15 colon, over 100 µM; in the assay on OVCAR-8 ovarian it was 22.4 µM.
